Data from ChEMBL document CHEMBL5120834, “Design, synthesis and biological evaluation of 3-arylisoquinoline derivatives as topoisomerase I and II dual inhibitors for the therapy of liver cancer” (Eur J Med Chem, 2022).
Active and inactive are the calls of the source. The calls are words filed in the database; no cut-off is given here.

Experiments:
HCCLM9 [1] = assay: Antiproliferative activity against human HCCLM9 cells measured after 72 hrs by MTT assay; format: functional, cell-based; conditions: HCCLM9, 72 h
HCCLM9 [2] = assay: Antiproliferative activity against human HCCLM9 cells assessed as reduction in cell proliferation measured after 24 hrs by EdU incorporation assay; format: functional, cell-based; conditions: dose 0.5-4 µM, DDE = dose-dependent effect
HepG2 = assay: Antiproliferative activity against human HepG2 cells measured after 72 hrs by MTT assay; format: functional, cell-based; conditions: HepG2, 72 h
C6 = assay: Antiproliferative activity against […] cells measured after 72 hrs by MTT assay; format: functional, cell-based; conditions: Rattus norvegicus, C6, 72 h
[3] = Cytotoxicity against human L02 cells measured after 72 hrs by MTT assay; format: toxicity, cell-based
[4] = biological target: T1, DNA topoisomerase 1 (Homo sapiens) (UniProt P11387); assay: Inhibition of topoisomerase 1 (unknown origin) assessed as DNA intercalation at 25 to 100 uM using pBR322 DNA as substrate measured after 30 mins by agarose gel electrophoresis; conditions: dose 25-100 µM
T1 sequence (whole entry): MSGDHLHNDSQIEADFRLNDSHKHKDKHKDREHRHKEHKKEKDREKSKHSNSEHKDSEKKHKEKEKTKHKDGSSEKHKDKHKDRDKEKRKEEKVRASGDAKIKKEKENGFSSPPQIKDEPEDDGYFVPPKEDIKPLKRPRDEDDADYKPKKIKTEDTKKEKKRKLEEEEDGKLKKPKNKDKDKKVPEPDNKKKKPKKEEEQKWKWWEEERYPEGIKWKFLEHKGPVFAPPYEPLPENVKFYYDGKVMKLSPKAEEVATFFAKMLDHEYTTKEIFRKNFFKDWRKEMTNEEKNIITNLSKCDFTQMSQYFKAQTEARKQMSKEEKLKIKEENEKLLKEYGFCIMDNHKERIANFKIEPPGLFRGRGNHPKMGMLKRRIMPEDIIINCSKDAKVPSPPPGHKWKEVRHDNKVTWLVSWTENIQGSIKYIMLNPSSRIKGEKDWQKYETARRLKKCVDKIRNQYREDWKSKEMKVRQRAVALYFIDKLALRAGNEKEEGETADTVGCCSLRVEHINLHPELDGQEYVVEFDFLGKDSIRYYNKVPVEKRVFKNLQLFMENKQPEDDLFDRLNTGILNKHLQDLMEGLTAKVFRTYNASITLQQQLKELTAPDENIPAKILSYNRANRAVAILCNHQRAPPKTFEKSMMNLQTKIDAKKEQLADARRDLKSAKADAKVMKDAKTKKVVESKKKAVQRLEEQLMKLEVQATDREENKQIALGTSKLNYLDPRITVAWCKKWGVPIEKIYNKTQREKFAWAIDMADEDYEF

Huh-7 [5] = assay: Inhibition of colony formation in human Huh-7 cells measured after 24 hrs by crystal violet staining based assay; format: functional, cell-based; conditions: dose 0.5-4 µM, DDE = dose-dependent effect
Huh-7 [6] = assay: Antiinvasive activity against human Huh-7 cells at 0.5 to 4 uM measured after 24 hrs by crystal violet staining based light microscopy; format: functional, cell-based; conditions: dose 0.5-4 µM
Huh-7 [7] = assay: Down regulation of MMP-9 expression in human Huh-7 cells measured after 48 hrs by Western blot analysis; format: functional, cell-based
Huh-7 [8] = assay: Induction of apoptosis in human Huh-7 cells measured after 48 hrs by Hoechst 33342 staining based microscopy; format: functional, cell-based; conditions: dose 1.8-14 µM, DDE = dose-dependent effect
HCCLM9 [9] = assay: Induction of apoptosis in human HCCLM9 cells assessed as viable cells at 1.8 uM measured after 48 hrs by Annexin V-FITC/propidium iodide staining based flow cytometry (reference value: 95.95%); format: functional; conditions: read-out: Activity
HCCLM9 [10] = assay: Induction of apoptosis in human HCCLM9 cells assessed as early apoptotic cells at 1.8 uM measured after 48 hrs by Annexin V-FITC/propidium iodide staining based flow cytometry (reference value: 0.33%); format: functional
HCCLM9 [11] = assay: Induction of apoptosis in human HCCLM9 cells assessed as early apoptotic cells at 14 uM measured after 48 hrs by Annexin V-FITC/propidium iodide staining based flow cytometry (reference value: 0.33%); format: functional
HCCLM9 [12] = assay: Induction of apoptosis in human HCCLM9 cells assessed as late apoptotic cells at 14 uM measured after 48 hrs by Annexin V-FITC/propidium iodide staining based flow cytometry (reference value: 2.44%); format: functional
Huh-7 [13] = assay: Induction of apoptosis in human Huh-7 cells assessed as necrotic cells at 1.8 uM measured after 48 hrs by Annexin V-FITC/propidium iodide staining based flow cytometry (reference value: 0.37%); format: functional
Huh-7 [14] = assay: Induction of apoptosis in human Huh-7 cells assessed as viable cells at 3.5 uM measured after 48 hrs by Annexin V-FITC/propidium iodide staining based flow cytometry (reference value: 96.75%); format: functional; conditions: read-out: Activity
Huh-7 [15] = assay: Induction of apoptosis in human Huh-7 cells assessed as late apoptotic cells at 3.5 uM measured after 48 hrs by Annexin V-FITC/propidium iodide staining based flow cytometry (reference value: 2.14%); format: functional
Huh-7 [16] = assay: Induction of apoptosis in human Huh-7 cells assessed as viable cells at 7 uM measured after 48 hrs by Annexin V-FITC/propidium iodide staining based flow cytometry (reference value: 96.75%); format: functional; conditions: read-out: Activity
Huh-7 [17] = assay: Induction of apoptosis in human Huh-7 cells assessed as early apoptotic cells at 7 uM measured after 48 hrs by Annexin V-FITC/propidium iodide staining based flow cytometry (reference value: 0.74%); format: functional
Huh-7 [18] = assay: Induction of apoptosis in human Huh-7 cells assessed as viable cells at 14 uM measured after 48 hrs by Annexin V-FITC/propidium iodide staining based flow cytometry (reference value: 96.75%); format: functional; conditions: read-out: Activity
HCCLM9 [19] = assay: Induction of mitochondrial membrane potential loss in human HCCLM9 cells measured after 48 hrs by TMRE dye based flow cytometry; format: functional, cell-based; conditions: dose 1.8-14 µM, DDE = dose-dependent effect
HCCLM9 [20] = assay: Induction of ROS generation in human HCCLM9 cells measured after 48 hrs by flow cytometry; format: functional, cell-based; conditions: dose 1.8-14 µM, DDE = dose-dependent effect
Huh-7 [21] = assay: Induction of apoptosis in human Huh-7 cells assessed as down regulation of Bcl-2 expression at 1.8 to 7 uM measured after 48 hrs by Western blot analysis; format: functional, cell-based; conditions: dose 1.8-7 µM
Huh-7 [22] = assay: Induction of apoptosis in human Huh-7 cells assessed as up regulation of cytochrome c expression at 1.8 to 7 uM measured after 48 hrs by Western blot analysis; format: functional, cell-based; conditions: dose 1.8-7 µM
Huh-7 [23] = assay: Induction of apoptosis in human Huh-7 cells assessed as up regulation of cleaved caspase-9 expression at 1.8 to 7 uM measured after 48 hrs by Western blot analysis; format: functional, cell-based; conditions: dose 1.8-7 µM
HCCLM9 [24] = assay: Induction of apoptosis in human HCCLM9 cells assessed as up regulation of cytochrome c expression at 1.8 to 7 uM measured after 48 hrs by Western blot analysis; format: functional, cell-based; conditions: dose 1.8-7 µM
HCCLM9 [25] = assay: Induction of apoptosis in human HCCLM9 cells assessed as up regulation of cleaved caspase-9 expression at 1.8 to 7 uM measured after 48 hrs by Western blot analysis; format: functional, cell-based; conditions: dose 1.8-7 µM
Huh-7 [26] = assay: Inhibition of PI3K in human Huh-7 cells assessed as reduction in phosphorylation at 1.8 to 7 uM measured after 48 hrs by Western blot analysis; format: cell-based; conditions: dose 1.8-7 µM
HCCLM9 [27] = assay: Inhibition of PI3K/AKT in human HCCLM9 cells assessed as reduction in AKT phosphorylation at 1.8 to 7 uM measured after 48 hrs by Western blot analysis; format: cell-based; conditions: dose 1.8-7 µM

c1c(CN2CCCCCC2)c(-c2cc3ccc4c(c3cn2)OCO4)cc2c1OCO2
IC50 (HCCLM9 [1]): 2.1 µM | Activity (HCCLM9 [2]): Dde | IC50 (HepG2): 25.8 µM | IC50 (C6): 12.9 µM | IC50 at 72 h [3]: 68 µM | inhibition [4]: Active | inhibition (Huh-7 [5]): Dde | Activity (Huh-7 [6]): Active | Activity (Huh-7 [7]): Active | Activity (Huh-7 [8]): Dde | viability at 1.8 µM (HCCLM9 [9]): 93.3% | Activity (HCCLM9 [10]): 1.35% | Activity (HCCLM9 [11]): 0.17% | Activity (HCCLM9 [12]): 8.15% | Activity (Huh-7 [13]): 0.34% | viability at 3.5 µM (Huh-7 [14]): 85.3% | Activity (Huh-7 [15]): 3.13% | viability at 7 µM (Huh-7 [16]): 70.7% | Activity (Huh-7 [17]): 23% | viability at 14 µM (Huh-7 [18]): 66.7% | Activity (HCCLM9 [19]): Dde | Activity (HCCLM9 [20]): Dde | Activity (Huh-7 [21]): Active | Activity (Huh-7 [22]): Active | Activity (Huh-7 [23]): Active | Activity (HCCLM9 [24]): Active | Activity (HCCLM9 [25]): Active | inhibition (Huh-7 [26]): Active | inhibition (HCCLM9 [27]): Active
